Source: patent publication US20130129675A1, “INTERFERON THERAPIES IN COMBINATION WITH BLOCKADE OF STAT3 ACTIVATION” (BOARD OF REGENTS, THE UNIVERSITY OF TEXAS SYSTEM, priority 2009, published 2013)

Experiments:
[1] = tested on: STAT3 in HH, HuT78 and MJ CTCL lines; test: STAT3 tyrosine 705 phosphorylation in CTCL lines; type: cell-based, human; details: serum starved 18 hours, stimuli 30 minutes (FIG. 7)
Description: To determine whether IFN alpha and beta were able to selectively phosphorylate STAT3 in other cell types. Studies were conducted in a range of other biologically relevant cell types. In these experiments, cells were grown in media supplemented with 10% FBS, and then serum starved for 18 hours and exposed to various stimuli for 30 minutes.

[2] = tested on: B16 target cells (NK1.1+CD3− NK effector cells); test: NK cell cytotoxicity assay against melanoma cells; type: cell-based, mice; details: WP1193 2 μM, IFN-α 20 ng/ml, 48 h, control 8.8
Description: Splenocytes were prepared as described above. NK1.1+CD3− NK effector cells or CD3+CD8+ T effector cells were sorted from splenocytes on a FACSAria Cell Sorter (BD Biosciences) with FITC-conjugated anti-mouse NK1.1 (eBioscience), PE-conjugated anti-CD3, and allophycocyanin (APC)-conjugated anti-CD8 antibodies (Miltenyi Biotec, Auburn, Calif.). B16 target cells were prepared as described above. The ratio of NK1.1+CD3− NK effector cells or CD8+ T effector cells to B16 target cells was 10:1 and 5:1, respectively. In the presence of NK1.1+CD3− NK cells or CD8+ T cells, treatment groups consisted of B16 target cells alone; B16 cells with 2 μM of WP1193; B16 cells with 20 ng/ml of IFN-α; B16 cells with 2 µM of WP1193 and 20 ng/ml of IFN-α. After 48 hours of incubation, the CFSE-labeled B16 melanoma cells were removed from the plates with trypsin and analyzed by FACS. Then, B16 cells were stained with PI (BD Biosciences) to distinguish viable cells from nonviable cells. B16 cells that were stained with CFSE and PI were considered nonviable. Flow cytometric acquisition of the B16 target cells was performed with a FACSCalibur flow cytometer (BD Biosciences), and data analysis was performed using FlowJo software (TreeStar). […]

[3] = tested on: intracerebral B16 melanoma; test: Survival of mice with established intracerebral B16 melanoma; type: in vivo, C57BL/6J mice; details: for median overall survival: WP1193 30 mg/kg oral gavage (sub-therapeutic) from day 3, IFN-α plasmid i.v. day 5, control 17 days; for increase in median survival: versus control (17 days)
Source text: For the in vivo experiments, we used 4- to 6-week-old female C57BL/6J mice maintained in the M. D. Anderson Cancer Center Isolation Facility in accordance with Laboratory Animal Resources Commission standards and conducted according to an Institutional Animal Care and Use Committee-approved protocol, 08-06-11831. A mouse was euthanized when it became unable to reach food or water. To induce intracerebral tumors in C57BL/6J mice, B16 cells were collected in logarithmic growth phase, washed twice with PBS, mixed with an equal volume of 10% methyl cellulose and RPMI 1640 medium and loaded into a 250-μl syringe (Hamilton, Reno, Nev.) with an attached 25-gauge needle. The needle was positioned 2 mm to the right of bregma and 4 mm below the surface of the skull at the coronal suture using a stereotactic frame (Kopf Instruments, Tujunga, Calif.). The intracerebral tumorigenic dose for the B16 cells was 5×10^2 in a total volume of 5 μl.
pORF.IFN-α (IFN-α) plasmid was obtained from Invivogen (29). Hydrodynamic gene transfer (HGT) consisted of a single intravenous (i.v.) injection of 3 μg endotoxin-free pORF plasmid encoding murine IFN-α or pORF control plasmid DNA (InvivoGen, San Diego, Calif.) in 2 ml of saline as previously described. Liu F, Song Y, Liu D, Hydrodynamics-Based Transfection In Animals By Systemic Administration Of Plasmid DNA, Gene Therapy 1999; 6:1258-66. […] Sikora A G, Jaffarzad N, Hailemichael Y, Gelbard A, Stonier S W, Schluns K S, Frasca L, Lou Y, Liu C, Andersson H A, Hwu P, Overwijk W W, IFN-A Enhances Peptide Vaccine-Induced CD8+ T Cell Numbers, Effector Function, And Antitumor Activity, J Immunol 2009, 182:7398-407. The STAT3 inhibitor, WP1193, was synthesized and supplied by Dr. Priebe (M. D. Anderson). WP1193, a third-generation analogue inhibitor of the p-STAT3 pathway, was dissolved in a mixture of 20 parts dimethylsulfoxide (DMSO) to 80 parts polyethylene glycol (PEG) 300 (Sigma-Aldrich, St Louis, Mo.) at titered concentrations and delivered in a final volume of 100 μL. Prior to use, WP1193 was stored as a lyophilized powder at 4° C.
Treatment for the established intracerebral tumors was with WP1193 (starting on day 3) and/or IFN-α (starting on day 5) after B16 tumor cell challenge. Mice were injected intravenously (i.v.) with 2 ml (3 μg) of IFN-α plasmid in saline once. Mice were treated with a sub-therapeutic dose of 30 mg/kg of WP1193 by oral gavage (o.g.) in a vehicle of DMSO/PEG300 (20 parts/80 parts) on […], on a […]. schedule (5 days on, 2 days off). When mice were treated in the therapeutic range of 40 mg/kg, >80% of animals survived long-term (more than 70 days) and synergy with IFN-α could not be assessed. Ten mice per experimental group were used, including treatment with the DMSO/PEG300 vehicle alone in the control group.
Kaplan-Meier product-limit survival probability estimates of overall survival were calculated and log-rank tests were performed to compare overall survival between treatment groups and the control arm. Kaplan E L, Meier P., Nonparametric Estimation From Incomplete Observations, J Am Stat Assoc 1958; 53:457-81; Mantel N., Evaluation Of Survival Data And Two New Rank Order Statistics Arising In Its Consideration, Cancer Chemother Rep 1966; 50:163-70 Ex-vivo or in vitro data are presented as means±standard errors (SEs) of three repeated experiments. Student's t test was performed. A P value below 0.05 was considered statistically significant. […]

| Compound | tyrosine phosphorylation of STAT3 (tyrosine 705) [1] | % of B16 Killimg [2] | median overall survival [3] | increase in median survival [3] | animals surviving long-term (more than 70 days) ([3]; therapeutic range of 40 mg/kg) |
| --- | --- | --- | --- | --- | --- |
| IFN-α | selectively stimulates tyrosine phosphorylation of STAT3 | 12.5% | 27.5 days | 62% |  |
| N#C/C(=C\c1cccc(Br)n1)C(=O)N[C@H](c1ccccc1)C1CC1 [WP1193, (S,E)-3-(6-bromopyridin-2-yl)-2-cyano-N-(cyclopropyl(phenyl)methyl)acrylamide] |  | 10.9% | 18.5 days | 9% | > 80% |
